Test results as given in PMC10054553, “Development of the First ^18F-Labeled Radiohybrid-Based Minigastrin Derivative with High Target Affinity and Tumor Accumulation by Substitution of the Chelating Moiety” (Pharmaceutics, 2023).
Read-outs that look alike come from different tables or passages of the source.

Legend:
[1] = Lipophilicity (logD7.4), n-octanol/PBS pH 7.4; assay type: physicochemical
Method: Cell-based experiments and determination of lipophilicity (logD7.4) were performed as previously published. A detailed description of the in vitro experiments is provided in the Supplementary Materials.
Cell Culture. CCK-2R-expressing rat pancreatic cancer cells AR42J (CLS GmbH, Eppelheim, Germany) were cultivated in monolayers in CELLSTAR® cell culture flasks acquired from Greiner Bio-One GmbH (Frickenhausen, Germany) at 37°C in a humidified atmosphere (5% CO2) using a HERAcell 150i-Incubator (Thermo Fisher Scientific Inc., Waltham, United States). The nutrient medium RPMI 1640 medium, supplemented with 5 mM L-Gln 5 mL non-essential amino acids (100×) and 10% FCS, was used. Furthermore, a Dulbecco’s PBS solution with 0.1% EDTA (v/v) was applied to detach the cells for cell passaging. The detached cells were counted using a Neubauer hemocytometer (Paul Marienfeld, Lauda-Königshofen, Germany). In addition, all operations under sterile conditions were accomplished using a MSC-Advantage safety workbench (Thermo Fisher Scientific Inc., Waltham, United States).
Determination of IC50. AR42J cells (2.0 × 10^5 cells/well) were seeded into 24-well plates 24 ± 2 h prior to testing using 1 mL of nutrient medium (RPMI 1640, 5 mM L-Gln, 5 mL non-essential amino acids (100×), 10% FCS). Cells were incubated at 37°C in a humidified atmosphere (5% CO2).
After the removal of the medium, each well was washed with 500 μL PBS. For the cell-based assay, 200 μL of the nutrient medium (+5% BSA), [ 177Lu]Lu-DOTA-PP-F11N (25 μL, 0.3 pmol) as a radiolabeled reference and 25 μL of the peptide of interest in increasing concentrations (10 −10 to 10−4 M) were added to the cells in triplicate. Thereafter, the assay was incubated for 3 h at 37°C and the supernatant was collected. The cells were washed with 300 μL PBS and the collected supernatant fractions were unified.
After lysis of the cells with NaOH (300 μL, 1 N) for 15 min, the respective wells were washed with NaOH (300 μ L, 1 N) and both fractions were unified. The radioactivity of both the supernatant and the lysed fractions were quantified using a γ-counter (PerkinElmer Inc., Waltham, United States). The obtained data were evaluated via the GraphPad PRISM software (GraphPad Software Inc., La Jolla, United States), which calculates the half-maximal inhibitory concentration (IC50) of the peptides.
Internalization Studies. For the determination of the internalization kinetics of the various peptides, AR42J cells (3.0 × 10^5 cells/well) were seeded into polylysine-coated 24-well plates, adding 1 mL of nutrient medium. Afterwards, the cells were incubated for 24 ± 2 h at 37°C in a humidified atmosphere […]
On the day of the experiment, the medium was removed, and each well was washed with nutrient medium (300 μL). Afterwards 200 μL of nutrient medium, 25 μL of the 177Lu-labeled peptide (0.3 pmol, n = 6) and either 25 μL of nutrient medium for internalization studies ( n = 3) or 25 μL of [natLu]Lu-DOTA-PP-F11N (10 μmol) for competition studies ( n = 3) were added. Thereafter, the assay was incubated for various time points (1, 2, 4 and 6 h) at 37°C in a humidified atmosphere (5% CO2). After incubation, the cells were put on ice for at least 1 min to stop internalization kinetics and the supernatant was collected. Then, the cells were washed with an ice-cold nutrient medium (300 μL) and both fractions were unified. […] The radioactivity of the supernatant, the acid wash and the lysed fractions were quantified using a γ-counter. […]

[2] = Stability studies in human serum; assay type: in vitro ADME; settings: 37 °C; for SiOH-containing analog (%): 24 h, n = 3, analog with hydrolyzed SiFA moiety; for remaining at 24 h, 5 µM: human, n = 3, read-out: Intact peptide (%)
Method: In vitro stability studies in human serum after incubation at 37 °C for 24 h were performed as described in the Supplemental Material.
Stability Studies in Human Serum. The 177Lu- as well as 67Ga-labeled CCK-2R ligands (1 nmol,
approx. 5 MBq) were incubated for 24 h in human serum (200 μL) at 37 °C. After incubation, ice-cold
EtOH (125 μL) and MeCN (375 μL) were added and the suspension was centrifuged for 5 min at
5000 rpm. Then, the supernatant was transferred into new vials and centrifuged for another 5 min at
5000 rpm. After separating the precipitate from the solution, the stability of the ligands was determined

[3] = µPET/CT imaging in an AR42J tumor-bearing mouse; assay type: in vivo, mice; settings: 100 pmol, n = 1
Method: Biodistribution studies (n = 4) and µSPECT/CT as well as µPET/CT imaging (using a MILabs VECTor^4 small-animal SPECT/PET/OI/CT device, MILabs, Utrecht, The Netherlands) at 1 and 24 h p.i. were carried out as previously published. For all ^177Lu-labeled compounds, approximately 2–3 MBq (100 pmol)—and for the ^18F-labeled analog, approximately 7 MBq (100 pmol)—were administered. For all competition studies, 2.90 mg/kg (40 nmol) of [^natLu]Lu-DOTA-MGS5 (10^−3 M in phosphate-buffered saline) were co-administered.
Moreover, the chemically identical compound, [^18F]F-[^natLu]Lu-DOTA-rhCCK-18, was evaluated via µPET/CT in a AR42J tumor-bearing mouse (n = 1), which confirmed high tumor and kidney uptake at 1 h p.i. and low overall off-target accumulation (Figure 5, right).
Figure 5 Representative µSPECT/CT images of [^177Lu]Lu-DOTA-rhCCK-18 at 1 and 24 h p.i. (left) and µPET/CT image of [^18F]F-[^natLu]Lu-DOTA-rhCCK-18 at 1 h p.i. (right) in AR42J tumor-bearing CB17- SCID mice (100 pmol each). Tumors (T) are indicated by white arrows. Kidney (K) and tumor (T) values are depicted at the bottom. TEXT PRINTED IN THE PICTURE: [^177Lu]Lu-DOTA-rhCCK-18: T: 24.1 %ID/g (1 h p.i.); K: 97.2 %ID/g (1 h p.i.); T: 25.4 %ID/g (24 h p.i.); K: 134 %ID/g (24 h p.i.) | [^18F]F-[^natLu]Lu-DOTA-rhCCK-18: T: 31.2 %ID/g (1 h p.i.); K: 146 %ID/g (1 h p.i.)

CCK-2R = molecular target: T1, CCK-2R (Rattus norvegicus, UniProt P30553); design: method as in earlier work; settings: natLu-labeled peptide; AR42J cells, [177Lu]Lu-DOTA-PP-F11N 0.3 pmol/well, 3 h, 37 °C, n = 3; identical conditions; cited from earlier work
T1 construct: CCK-2R-expressing rat pancreatic cancer cells AR42J; host or cells: AR42J (rat pancreatic cancer cells)
T1 sequence (P30553 1-452): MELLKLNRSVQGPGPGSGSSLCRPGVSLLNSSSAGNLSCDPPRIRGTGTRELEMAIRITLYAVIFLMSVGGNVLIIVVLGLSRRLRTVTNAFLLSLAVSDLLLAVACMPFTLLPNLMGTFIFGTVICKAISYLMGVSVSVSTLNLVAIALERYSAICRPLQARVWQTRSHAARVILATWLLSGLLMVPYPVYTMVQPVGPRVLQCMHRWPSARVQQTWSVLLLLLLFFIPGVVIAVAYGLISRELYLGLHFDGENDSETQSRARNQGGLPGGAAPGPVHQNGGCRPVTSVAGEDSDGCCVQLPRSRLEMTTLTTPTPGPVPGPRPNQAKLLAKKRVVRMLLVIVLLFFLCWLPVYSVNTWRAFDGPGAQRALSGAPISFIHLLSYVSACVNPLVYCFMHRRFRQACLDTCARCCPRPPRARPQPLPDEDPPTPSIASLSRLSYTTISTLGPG

CCCC[C@H](NC(=O)[C@H](Cc1c[nH]c2ccccc12)NC(=O)CNC(=O)[C@H](Cc1ccc(O)cc1)NC(=O)[C@H](C)NC(=O)[C@@H](CCC(=O)O)NC(=O)[C@@H](CCC(=O)O)NC(=O)[C@@H](CCC(=O)O)NC(=O)[C@@H](CCC(=O)O)NC(=O)[C@@H](CCC(=O)O)NC(=O)[C@@H](CCC(=O)O)NC(=O)CC[C@H](C(=O)O)N1CCN(CC(=O)O)CCN(CC(=O)O)CCN(CC(=O)O)CC1)C(=O)N[C@@H](CC(=O)O)C(=O)N[C@@H](Cc1ccccc1)C(N)=O [[^177Lu]Lu-(R)-DOTAGA-PP-F11N, metal not drawn]
logD ([1]; pH 7.4): -3.95 ± 0.06

CCCC[C@H](NC(=O)[C@H](Cc1c[nH]c2ccccc12)NC(=O)CNC(=O)[C@H](Cc1ccc(O)cc1)NC(=O)[C@H](C)NC(=O)CC[C@@H](NC(=O)CC[C@@H](NC(=O)CC[C@@H](NC(=O)CC[C@@H](NC(=O)CC[C@@H](NC(=O)CC[C@@H](NC(=O)CC[C@@H](NC(=O)CC[C@@H](NC(=O)[C@@H](CNC(=O)c1ccc([Si](F)(C(C)(C)C)C(C)(C)C)cc1)NC(=O)CN1CCN(CC(=O)O)CCN(CC(=O)O)CCN(CC(=O)O)CC1)C(=O)O)C(=O)O)C(=O)O)C(=O)O)C(=O)O)C(=O)O)C(=O)O)C(=O)O)C(=O)N[C@@H](CC(=O)O)C(=O)N[C@@H](Cc1ccccc1)C(N)=O [[^67Ga]Ga-DOTA-rhCCK-18, metal not drawn]
SiOH-containing analog (%) [2]: 53.6 ± 6.6% | remaining at 24 h, 5 µM [2]: 43.7 ± 6.9%

CCCC[C@H](NC(=O)[C@H](Cc1c[nH]c2ccccc12)NC(=O)CNC(=O)[C@H](Cc1ccc(O)cc1)NC(=O)[C@H](C)NC(=O)CC[C@@H](NC(=O)CC[C@@H](NC(=O)CC[C@@H](NC(=O)CC[C@@H](NC(=O)CC[C@@H](NC(=O)CC[C@@H](NC(=O)CC[C@@H](NC(=O)CC[C@@H](NC(=O)[C@@H](CNC(=O)c1ccc([Si](F)(C(C)(C)C)C(C)(C)C)cc1)NC(=O)CN1CCN(CC(=O)O)CCN(CC(=O)O)CCN(CC(=O)O)CC1)C(=O)O)C(=O)O)C(=O)O)C(=O)O)C(=O)O)C(=O)O)C(=O)O)C(=O)O)C(=O)N[C@@H](CC(=O)O)C(=O)N[C@@H](Cc1ccccc1)C(N)=O [[^18F]F-[^natLu]Lu-DOTA-rhCCK-18, metal not drawn]
tissue uptake at 1 h ([3]; CB17-SCID, mouse, kidney, total radioactivity, 1 h p.i., read-out: Kidney (K) value, µPET/CT): 146 %ID/g | tissue uptake at 1 h ([3]; CB17-SCID, mouse, tumor, total radioactivity, 1 h p.i., read-out: Tumor (T) value, µPET/CT): 31.2 %ID/g | tissue uptake at 1 h ([3]; bone, µPET/CT mouse, read-out: bone uptake): 1.69 %ID/g

CCCC[C@H](NC(=O)[C@H](Cc1c[nH]c2ccccc12)NC(=O)CNC(=O)[C@H](Cc1ccc(O)cc1)NC(=O)[C@H](C)NC(=O)CC[C@@H](NC(=O)CC[C@@H](NC(=O)CC[C@@H](NC(=O)CC[C@@H](NC(=O)CC[C@@H](NC(=O)CC[C@@H](NC(=O)[C@@H](CNC(=O)c1ccc([Si](F)(C(C)(C)C)C(C)(C)C)cc1)NC(=O)CN1CCN(CC(=O)O)CCN(CC(=O)O)CCN(CC(=O)O)CC1)C(=O)O)C(=O)O)C(=O)O)C(=O)O)C(=O)O)C(=O)O)C(=O)N[C@@H](CC(=O)O)C(=O)N[C@@H](Cc1ccccc1)C(N)=O [[^67Ga]Ga-DOTA-rhCCK-16, metal not drawn]
SiOH-containing analog (%) ([2]; listed as [67Ga]Ga-DOTA-rhCCK-16): 56.5 ± 8.0% | remaining at 24 h, 5 µM [2]: 39.6 ± 7.9%

CCCC[C@H](NC(=O)[C@H](Cc1c[nH]c2ccccc12)NC(=O)CNC(=O)[C@H](Cc1ccc(O)cc1)NC(=O)[C@H](C)NC(=O)CC[C@@H](NC(=O)CC[C@@H](NC(=O)CC[C@@H](NC(=O)CC[C@@H](NC(=O)CC[C@@H](NC(=O)CC[C@@H](NC(=O)CC[C@@H](NC(=O)CC[C@@H](NC(=O)[C@@H](CNC(=O)c1ccc([Si](F)(C(C)(C)C)C(C)(C)C)cc1)NC(=O)CN1CCN(CC(=O)O)CCN(CC(=O)O)CCN(CC(=O)O)CC1)C(=O)O)C(=O)O)C(=O)O)C(=O)O)C(=O)O)C(=O)O)C(=O)O)C(=O)O)C(=O)N[C@@H](CC(=O)O)C(=O)N[C@@H](Cc1ccccc1)C(N)=O [[^18F]F-[^natLu]Lu-DOTA-rhCCK-18] [metal not drawn]
logD7.4 ([1]; n-octanol/PBS pH 7.4): −2.71 ± 0.04

CCCC[C@H](NC(=O)[C@H](Cc1c[nH]c2ccccc12)NC(=O)CNC(=O)[C@H](Cc1ccc(O)cc1)NC(=O)[C@H](C)NC(=O)CC[C@@H](NC(=O)CC[C@@H](NC(=O)CC[C@@H](NC(=O)CC[C@@H](NC(=O)CC[C@@H](NC(=O)CC[C@@H](NC(=O)CC[C@@H](NC(=O)CC[C@@H](NC(=O)[C@@H](CNC(=O)c1ccc([Si](F)(C(C)(C)C)C(C)(C)C)cc1)NC(=O)CC[C@H](C(=O)O)N1CCN(CC(=O)O)CCN(CC(=O)O)CCN(CC(=O)O)CC1)C(=O)O)C(=O)O)C(=O)O)C(=O)O)C(=O)O)C(=O)O)C(=O)O)C(=O)O)C(=O)N[C@@H](CC(=O)O)C(=O)N[C@@H](Cc1ccccc1)C(N)=O [(R)-DOTAGA-rhCCK-18]
IC50 (CCK-2R): 20.4 ± 2 nM
